Data on 4 molecules can be found in US20050233984A1, “Composition for preventing or treating degenerative brain diseases comprising a hydrolysate of ginsenosides” (Digital Biotech Co., Ltd., priority 2002, published 2005).

The subject of series [1] is mice. Kind of series: Morris water maze test (spatial learning). Format: in vivo. Particulars: versus control group, FIG. 6.
The subject of series [2] is neuroblastoma B103 cell line. Kind of series: MTT test: preventing the toxicity of beta-amyloid. Format: cell-based. The following applies: B103 cells, beta-amyloid-only control = 100%. Here is the method:
In order to examine the activities of the compounds prepared in the Reference Example in preventing the toxicity of beta-amyloid, the MTT analysis (Gillardon, F. et al., Brain Research. No. 6: pp. 169-172 (1996)) was carried out as follows.
5×10^3 cells of neuroblastoma B103 cell line (donated by Dr. David Schubert of the Salk Institute, USA) were placed in each well of a 96-well plate with 100 μl of DMEM (Dulbecco's Minimal Eagle's Medium) containing 10% fetal bovine serum (FBS), and cultured at 37° C. under 8% CO2 for 1 day. […] The cells were cultured at 37° C. for 18 hours, treated with 15 μl of MTT solution [10 mg/ml solution of 3-(4,5-dimethyl-2-thiazolyl)-2,5-diphenyl-2H-tetrazolium bromide in phosphate buffered saline (PBS)], and allowed to react at 37° C. for 3 to 4 hours. 100 μl of lysis buffer (10% SDS, 50% dimethylformamide, pH 4.7) was added to the wells, and the cells were cultured overnight at room temperature and relative humidity of 90%. Optical density (OD) of each well was measured at […] and 630 nm, respectively, using a scanning multiwell spectrophotometer, and then the OD value at 630 nm was subtracted from that at 570 nm.
Setting the survival rate of the control group treated only with beta-amyloid as 100%, relative survival rates of the experimental groups treated with compound Y, ginsenosides Mc and Rc, PPD and PPT, respectively, were calculated, and the results are shown in Table 2 and FIG. 1. The obtained values were statistically significant.
When the same procedure as above was repeated except that the cells were treated simultaneously with the test compound and beta-amyloid, or treated with the test compound one hour after the beta-amyloid treatment, the results were almost the same as above.
Further, in order to assess the concentration-dependent activity of a test compound, the above procedure was repeated using PPT at concentrations ranging from […].
(Tetrazolium dyes change colour on reduction, which living cells bring about.)

Series [3] concerns neuroblastoma B103 cell line. Put plainly: MTT test: apoptosis induced by staurosporin. Particulars: B103 cells, staurosporin-only control = 100%. Format: cell-based. As for the experimental part:
5×10^3 cells of neuroblastoma B103 cell line (donated by Dr. David Schubert of the Salk Institute, USA) were placed in each well of a 96-well plate with 100 μl of DMEM (Dulbecco's Minimal Eagle's Medium) containing 10% fetal bovine serum (FBS), and cultured at 37° C. under 8% CO2 for 1 day. After changing the medium to serum-free DMEM, the cells were treated with various concentrations of test compounds and, 1 hour later, with 25 μM of beta-amyloid (25-35 peptide; US peptide, CA, USA). The cells were cultured at 37° C. for 18 hours, treated with 15 μl of MTT solution [10 mg/ml solution of 3-(4,5-dimethyl-2-thiazolyl)-2,5-diphenyl-2H-tetrazolium bromide in phosphate buffered saline (PBS)], and allowed to react at 37° C. for 3 to 4 hours. 100 μl of lysis buffer (10% SDS, 50% dimethylformamide, pH 4.7) was added to the wells, and the cells were cultured overnight at room temperature and relative humidity of 90%. Optical density (OD) of each well was measured at […] and 630 nm, respectively, using a scanning multiwell spectrophotometer, and then the OD value at 630 nm was subtracted from that at 570 nm.
Further, in order to examine whether compounds originating from ginseng can block apoptosis, […], and the survival rates of the neural cells were determined.

Series [4] is described as follows: Degree of BBB penetration: pharmacokinetics in blood and brain by LC-mass. The series is classed as in vivo, Sprague-Dawley rat. The following applies: SD rat; for migration into the brain (in words): 1 mg/kg intravenous Rg1 or Rb1. Here is the method:
A male Sprague-Dawley rat (weight 250-300 g) was lightly anesthetized with ether and catheterized with a polyethylene tube (PE-50) in the femoral artery and vein. After the rat recovered, a saline solution containing 1 mg/kg of Rg1 or Rb1 was administered into the femoral vein through the intravenous bolus administration. 300 μl blood samples were collected from the rat's femoral artery at 2, 5, 10, 15, 20, 30, 45 and 60 minutes after the administration. Each blood sample was centrifuged to obtain 100 μl of plasma. A plasma sample was prepared as in (2) of step 1 with the plasma. 20 μl of the sample was injected into the LC mass system as in Step 1, and ginsenosides Rg1 and Rb1 and their metabolites PPD and PPT were quantified. The plasma concentrations of ginsenosides and their metabolites were calculated in the forms of weight per plasma (ml) (in case of ginsenosides) or peak size (in case of metabolites).
Immediately after collecting the blood samples, the rats were decapitated and brain tissues were obtained therefrom. The tissues were rinsed with ice-cooled saline, placed in a 15 ml Falcon tube and then weighed precisely. Acetonitrile was added to the tube in an amount twice the weight of the tissue sample, and the sample was homogenized using a tissue homogenizer (Ultra-Turrax T25, JANKE&KUNKEL IKA-Labortechnik). The mixture was centrifuged at 3,000 rpm for 20 minutes. 300 μl of the resulting supernatant was dried in a speed-vac, and 300 μl of acetonitrile was added thereto. 20 μl of the resulting mixture was injected in the LC mass system as in Step 1 to quantify the concentrations of ginsenosides and their metabolites in the brain, and the measured concentrations were represented by weight per gram of the brain tissue or peak size.
Separation and detection conditions for ginsenosides Rg1 and Rb1 were as described in Step 1, and those for metabolites PPD and PPT were as follows:
The transfer rate of the substances into the brain (Kbrain) can be represented by the ratio of the mean concentration of the substance in the brain (Cmean,brain) to the mean plasma concentration (Cmean,plasma) as in Equation 1. [formula]
The mean concentration of a substance can be determined by dividing the area under the concentration-time curve corresponding to time 0 to t by t and, accordingly, the transfer rate of the substance into the brain (Kbrain) can be calculated by Equation 2 shown below. [formula]

[5] abbreviates: test compound 1 μM + 25 μM beta-amyloid (25-35), 18 hours.
The mark [6] stands for this setting: test compound 1 μM alone, without beta-amyloid.
Setting [7] is: test compound 1 μM + 0.1 μM staurosporin.
[8] abbreviates: test compound 1 μM alone, without staurosporin.

With `CC(C)=CCC[C@](C)(O[C@@H]1O[C@H](CO[C@@H]2O[C@@H](CO)[C@H](O)[C@H]2O)[C@@H](O)[C@H](O)[C@H]1O)[C@H]1CC[C@]2(C)[C@@H]1[C@H](O)C[C@@H]1[C@@]3(C)CC[C@H](O)C(C)(C)[C@@H]3CC[C@]12C` [Ginsenoside Mc], in series [1], the “time to reach the platform” value is “much shorter time to reach the platform”. The “Survival rate (%)” value in series [2] (setting [5]) is 106.1 ± 2.4%; in series [2] (setting [6]), 148.0 ± 6.3%; in series [3] (setting [7]), 101.1 ± 2.7%; in series [3] (setting [8]), 178.6 ± 6.3%.
As for `CC(C)=CCC[C@](C)(O[C@@H]1O[C@H](CO[C@@H]2O[C@@H](CO)[C@H](O)[C@H]2O)[C@@H](O)[C@H](O)[C@H]1O)[C@H]1CC[C@]2(C)[C@@H]1[C@H](O)C[C@@H]1[C@@]3(C)CC[C@H](O[C@@H]4O[C@H](CO)[C@@H](O)[C@H](O)[C@H]4O[C@@H]4O[C@H](CO)[C@@H](O)[C@H](O)[C@H]4O)C(C)(C)[C@@H]3CC[C@]12C` [Ginsenoside Rc], the “time to reach the platform” value in series [1] was “much shorter time to reach the platform”. Besides, the “Survival rate (%)” value in series [2] (setting [5]) is on record as 106.0 ± 0.9%; in series [2] (setting [6]), 161.0 ± 4.9%; in series [2] (test compound 10 μM + 25 μM beta-amyloid (25-35), 18 hours), 107.2 ± 1.9%; in series [2] (test compound 10 μM alone, without beta-amyloid), 126.7 ± 3.7%; in series [3] (setting [7]) it was 97.0 ± 4.8%; in series [3] (setting [8]) it was 191.4 ± 4.9%.
Take `CC(C)=CCC[C@](C)(O[C@@H]1O[C@H](CO[C@@H]2O[C@H](CO)[C@@H](O)[C@H](O)[C@H]2O)[C@@H](O)[C@H](O)[C@H]1O)[C@H]1CC[C@]2(C)[C@@H]1[C@H](O)C[C@@H]1[C@@]3(C)CC[C@H](O[C@@H]4O[C@H](CO)[C@@H](O)[C@H](O)[C@H]4O[C@@H]4O[C@H](CO)[C@@H](O)[C@H](O)[C@H]4O)C(C)(C)[C@@H]3CC[C@]12C` [ginsenoside Rb1, reference compound]: the “migration into the brain (in words)” value in series [4] is listed as “do not migrate into the brain”. The “concentration in the brain as compared with that in the plasma” value in series [4] (1 mg/kg intravenous bolus, until 60 min., FIG. 11b) is listed as “below 5.8%”.
`CC(C)=CCC[C@](C)(O[C@@H]1O[C@H](CO)[C@@H](O)[C@H](O)[C@H]1O)[C@H]1CC[C@]2(C)[C@@H]1[C@H](O)C[C@@H]1[C@@]3(C)CC[C@H](O)C(C)(C)[C@@H]3[C@@H](O[C@@H]3O[C@H](CO)[C@@H](O)[C@H](O)[C@H]3O)C[C@]12C` [ginsenoside Rg1, reference compound]: the “migration into the brain (in words)” value in series [4] is given as “do not migrate into the brain”. Also, in series [4] (1 mg/kg intravenous bolus of the ginsenoside, FIG. 11a), the “concentration in the brain” value is recorded as “below the detectable level”.
